Results as given in patent publication US20240092819A1, “NOVEL LIGANDS FOR ASIALOGLYCOPROTEIN RECEPTOR” (SANOFI, priority 2020, published 2024).
Where a name gives a salt, the structure may show the parent alone.

target: ASGPR (Rattus norvegicus (Rat), UniProt P02706+P08290); experiment: Fluorescent polarization (FP) ASGPR binding assay; details: Table K, monomeric compounds; competition with 1 nM Cy5-labeled trimeric GalNAc tracer; Wistar rat liver membrane
From the text: Fluorescent Polarization (FP) ASGPR Binding Assay to Determine the Binding Affinities of ASGPR-Targeted Small Molecules:
The technique of fluorescence polarization (FP) is based on the observation that when a fluorescently labeled molecule is excited by polarized light, it emits light with a degree of polarization that is inversely proportional to the rate of molecular rotation. This property of fluorescence can be used to measure the interaction of a small labeled ligand with a larger protein and provides a basis for direct and competition binding assays.
The assay was performed in 384-well microplates (GREINER bio-one, 781076). Membrane prepared from Wistar rat liver was used as a source of ASGPR and Cy5 fluorophore-labeled trimeric GauNAc-tool compound was used as a tracer.
In the FP binding experiments, 15 μltest sample was mixed with 15 μl of […] liver membrane. After 10 minutes incubation at room temperature, 10 μl of the Cy5-labeled trimeric GalNAc-tool compound (final concentration: 1 nM) were added. The FP signals were recorded after 30 minutes incubation at room temperature at Ex. 612 nm/Em. 670 with PheraStar FXS (BMG Biotech). The optimal FP buffer was 50 mM Tris, pH 7.4; 3 mM CaCl2; 0.04% Triton X100; 0,05% BSA.

ASGPR, sequence (P02706 whole entry): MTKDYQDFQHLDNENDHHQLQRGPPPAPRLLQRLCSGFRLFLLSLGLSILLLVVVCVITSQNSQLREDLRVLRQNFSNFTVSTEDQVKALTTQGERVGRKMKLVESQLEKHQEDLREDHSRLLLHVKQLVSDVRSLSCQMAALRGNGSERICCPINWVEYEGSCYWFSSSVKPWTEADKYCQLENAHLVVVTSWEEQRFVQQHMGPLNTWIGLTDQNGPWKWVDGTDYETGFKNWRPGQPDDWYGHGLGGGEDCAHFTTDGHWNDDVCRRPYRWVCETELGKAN
ASGPR, sequence (P08290 whole entry): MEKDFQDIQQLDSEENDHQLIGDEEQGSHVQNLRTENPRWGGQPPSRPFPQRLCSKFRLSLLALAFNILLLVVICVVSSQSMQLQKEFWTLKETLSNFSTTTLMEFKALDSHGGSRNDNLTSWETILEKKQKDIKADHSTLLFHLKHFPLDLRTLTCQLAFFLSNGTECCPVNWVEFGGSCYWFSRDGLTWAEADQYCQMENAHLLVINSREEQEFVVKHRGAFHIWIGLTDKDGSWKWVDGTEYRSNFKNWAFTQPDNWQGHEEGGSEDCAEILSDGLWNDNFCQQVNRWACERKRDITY

How did the IC50 turn out when `CNC(=O)C[C@H]1O[C@@H](n2cnc3c(=O)[nH]c(N)nc32)[C@H](O)[C@@H]1O` [Compound 71, 2-[(2R,3S,4R,5R)-5-(2-Amino-6-oxo-1H-purin-9-yl)-3,4-dihydroxy-tetrahydrofuran-2-yl]-N-methyl-acetamide] was run?
The IC50 was 605 µM.

With `CN(C)C(=O)C[C@H]1O[C@@H](n2cnc3c(=O)[nH]c(N)nc32)[C@H](O)[C@@H]1O` [Compound 72, 2-[(2R,3S,4R,5R)-5-(2-Amino-6-oxo-1H-purin-9-yl)-3,4-dihydroxytetrahydrofuran-2-yl]-N,N-dimethyl-acetamide] as the compound, how does the IC50 read?
Its IC50 is 89 µM.

For `CCCCNC(=O)C[C@H]1O[C@@H](n2cnc3c(=O)[nH]c(N)nc32)[C@H](O)[C@@H]1O` [Compound 73, 2-[(2R,3S,4R,5R)-5-(2-Amino-6-oxo-1H-purin-9-yl)-3,4-dihydroxy-tetrahydrofuran-2-yl]-N-butyl-acetamide], which IC50 is on record?
The IC50 was 1920 µM.

`CC(=O)N[C@H]1CN(C(=O)CCCCC(=O)OCc2ccccc2)C[C@H](O)[C@@H]1O` [Compound 112, benzyl 6-[(3S,4R,5S)-3-acetamido-4,5-dihydroxy-1-piperidyl]-6-oxo-hexanoate] was tested. Which IC50 did it give?
Its IC50 is 344 µM.

How did the IC50 turn out when `CC(=O)N[C@H]1CN(C(=O)OCc2ccccc2)C[C@H](O)[C@@H]1O` [Compound 121, benzyl (3S,4R,5S)-3-acetamido-4,5-dihydroxy-piperidine-1-carboxylate] was run?
Its IC50 is 563 µM.

How did the IC50 turn out when `CC(=O)N[C@H]1CN(C(=O)CCCCCOCc2ccccc2)C[C@H](O)[C@@H]1O` [Compound 128, N-[(3S,4R,5S)-1-(6-benzyloxyhexanoyl)-4,5-dihydroxy-3-piperidyl]acetamide] was run?
Its IC50 is 451 µM.

With `CC(=O)N[C@H]1CN(C(=O)CCCCCO)C[C@H](O)[C@@H]1O` [Compound 129, N-[(3S,4R,5S)-4,5-dihydroxy-1-(6-hydroxyhexanoyl)-3-piperidyl]acetamide] as the compound, how does the IC50 read?
The IC50 was 585 µM.

With `O=C(CCCCCOCc1ccccc1)N1C[C@H](O)[C@H](O)[C@@H](n2cc(COc3ccccc3)nn2)C1` [Compound 131, 6-benzyloxy-1-[(3S,4R,5S)-3,4-dihydroxy-5-[4-(phenoxy-methyl)triazol-1-yl]-1-piperidyl]hexan-1-one] as the compound, how does the IC50 read?
The IC50 was 1770 µM.

With `O=C1[C@H](O)[C@H](O)[C@@H](n2cc(COc3ccccc3)nn2)CN1CCCCCCOCc1ccccc1` [Compound 140, (3R,4R,5S)-1-(6-benzyloxyhexyl)-3,4-dihydroxy-5-[4-(phenoxymethyl)triazol-1-yl]piperidin-2-one] as the compound, how does the IC50 read?
Its IC50 is 658 µM.

How did the IC50 turn out when `CCC[C@@H]1[C@H](O)[C@H](O)[C@@H](NC(C)=O)CN1C(=O)CCCCC(=O)OCc1ccccc1` [Compound 146, benzyl 6-[(2R,3S,4R,5S)-5-acetamido-3,4-dihydroxy-2-propyl-1-piperidyl]-6-oxo-hexanoate] was run?
Its IC50 is 488 µM.

`CCC[C@@H]1[C@H](O)[C@H](O)[C@@H](NC(C)=O)CN1C(=O)CCCCC(=O)O` [Compound 148, 6-[(2R,3S,4R,5S)-5-acetamido-3,4-dihydroxy-2-propyl-1-piperidyl]-6-oxo-hexanoic acid] was tested. Which IC50 did it give?
The IC50 was 370 µM.

`CC(=O)N[C@H]1CN(C(=O)CCCCC(=O)OCc2ccccc2)[C@H](COC(C)(C)C)[C@H](O)[C@@H]1O` [Compound 160, benzyl 6-[(2R,3S,4R,5S)-5-acetamido-2-(tert-butoxymethyl)-3,4-dihydroxy-1-piperidyl]-6-oxo-hexanoate] was tested. Which IC50 did it give?
The IC50 was 1050 µM.

Which IC50 does the source give for `CC(=O)N[C@H]1CN[C@H](COC(=O)CCCCC(=O)OCc2ccccc2)[C@H](O)[C@@H]1O` [Compound 161, 06-[[(2R,3S,4R,5S)-5-acetamido-3,4-dihydroxy-2-piperidyl]methyl] 01-benzyl hexanedioate] here?
Its IC50 is 161 µM.

How did the IC50 turn out when `CC(=O)N[C@H]1CN(C(=O)CCCCC(=O)OCc2ccccc2)[C@@H](CO)[C@H](O)[C@@H]1O` [Compound 162, benzyl 6-[(2S,3S,4R,5S)-5-acetamido-3,4-dihydroxy-2-(hydroxymethyl)-1-piperidyl]-6-oxo-hexanoate] was run?
The IC50 was 576 µM.

How did the IC50 turn out when `CC(=O)N[C@H]1CN(CCCCCCOCc2ccccc2)[C@H](CO)[C@H](O)[C@@H]1O` [Compound 180, N-[(3S,4R,5S,6R)-1-(6-benzyloxyhexyl)-4,5-dihydroxy-6-(hydroxymethyl)-3-piperidyl]acetamide] was run?
The IC50 was 628 µM.

How did the IC50 turn out when `CC(=O)N[C@H]1C(O)O[C@H](CO)[C@H](O)[C@@H]1O` (stereo partly drawn) [Compound 193, N-[(3R,4R,5R,6R)-2,4,5-trihydroxy-6-(hydroxymethyl)-tetrahydropyran-3-yl]acetamide, reference compound] was run?
Its IC50 is 545 µM.

With `Nc1nc2c(ncn2[C@@H]2O[C@H](CO)[C@@H](O)[C@H]2O)c(=O)[nH]1` [Compound 194, 2-amino-9-[(2R,3R,4S,5R)-3,4-dihydroxy-5-(hydroxymethyl)-tetrahydrofuran-2-yl]-1H-purin-6-one] as the compound, how does the IC50 read?
The IC50 was 513 µM.

`CN(C)c1nc2c(ncn2[C@@H]2O[C@H](CO)[C@@H](O)[C@H]2O)c(=O)[nH]1` [Compound 198, 9-[(2R,3R,4S,5R)-3,4-dihydroxy-5-(hydroxymethyl)-tetrahydro-furan-2-yl]-2-(dimethylamino)-1H-purin-6-one] was tested. Which IC50 did it give?
The IC50 was 1940 µM.

`CC(C)C(=O)Nc1nc2c(ncn2[C@@H]2O[C@H](CO)[C@@H](O)[C@H]2O)c(=O)[nH]1` [Compound 219, N-Isobuturylguanosine] was tested. Which IC50 did it give?
Its IC50 is 129 µM.

same assay, conditions: Table L, targeted nucleosides; competition with 1 nM Cy5-labeled trimeric GalNAc tracer; Wistar rat liver membrane

`Cc1cn([C@H]2CN(CCOCCOCCOC[C@H]3O[C@@H](n4cnc5c(=O)[nH]c(N)nc54)[C@H](O)[C@@H]3O)CC(CO)(CO)O2)c(=O)[nH]c1=O` [Compound 254, 1-[(2R)-4-[2-[2-[2-[[(2R,3S,4R,5R)-5-(2-Amino-6-oxo-1H-purin-9-yl)-3,4-dihydroxy-tetrahydrofuran-2-yl]methoxy]ethoxy]ethoxy]ethyl]-6,6-bis-(hydroxymethyl)-morpholin-2-yl]-5-methyl-pyrimidine-2,4-dione] was tested. Which IC50 did it give?
The IC50 was 1240 µM.

Which IC50 does the source give for `Cc1cn([C@H]2CN(CCOCCOCCOP(=O)(O)OC[C@H]3O[C@@H](n4cnc5c(=O)[nH]c(N)nc54)[C@H](O)[C@@H]3O)CC(CO)(CO)O2)c(=O)[nH]c1=O` [Compound 258, [(2R,3S,4R,5R)-5-(2-Amino-6-oxo-1H-purin-9-yl)-3,4-di-hydroxy-tetrahydrofuran-2-yl]methyl 2-[2-[2-[(6R)-2,2-bis(hydroxymethyl)-6-(5-methyl-2,4-dioxo-pyrimidin-1-yl)morpholin-4-yl]ethoxy]ethoxy]ethyl hydrogen phosphate-sodium salt] here?
The IC50 was 1850 µM.

same assay, conditions: Table M, trimeric compounds; competition with 1 nM Cy5-labeled trimeric GalNAc tracer; Wistar rat liver membrane

Which IC50 does the source give for `CC(=O)N[C@H]1CN(C(=O)CCCCC(=O)NCCCNC(=O)CCOCC(COCCC(=O)NCCCNC(=O)CCCCC(=O)N2C[C@H](NC(C)=O)[C@@H](O)[C@@H](O)C2)(COCCC(=O)NCCCNC(=O)CCCCC(=O)N2C[C@H](NC(C)=O)[C@@H](O)[C@@H](O)C2)NC(=O)CCCCCCCCCCCOCc2ccccc2)C[C@H](O)[C@@H]1O` [Compound 267, N,N′,N′-((3S,3′S,3″S,4R,4′R,4″R,5S,5′S,5″S)-(17-(12-(benzyloxy)dodecanamido)-6,12,22,28-tetraoxo-17-((3-oxo-3-((3-(6-oxopentanamido)propyl)amino)propoxy)methyl)-15,19-dioxa-7,11,23,27-tetraazatritriacontanedioyl)tris(4,5-dihydroxypiperidine-1,3-diyl))triacetamide] here?
The IC50 was 0.563 µM.

Which IC50 does the source give for `CC(=O)NC1CN(C(=O)CCCC(=O)NCCCNC(=O)CCOCC(COCCC(=O)NCCCNC(=O)CCCC(=O)N2C[C@H](NC(C)=O)[C@@H](O)[C@@H](O)C2)(COCCC(=O)NCCCNC(=O)CCCC(=O)N2C[C@H](NC(C)=O)[C@@H](O)[C@@H](O)C2)NC(=O)CCCCCCCCCCCOCc2ccccc2)C[C@H](O)[C@@H]1O` (stereo partly drawn) [Compound 268, N,N′,N′-((3S,3′S,3″S,4R,4′R,4″R,5S,5′S,5″S)-(16-(12-(benzyloxy)dodecanamido)-5,11,21,27-tetraoxo-16-((3-oxo-3-((3-(5-oxopentanamido)propyl)amino)propoxy)methyl)-14,18-dioxa-6,10,22,26-tetraazahentriacontanedioyl)tris(4,5-dihydroxy-piperidine-1,3-diyl))triacetamide] here?
The IC50 was 0.335 µM.

Which IC50 does the source give for `CC(=O)N[C@H]1CN(C(=O)CCC(=O)NCCCNC(=O)CCOCC(COCCC(=O)NCCCNC(=O)CCC(=O)N2C[C@H](NC(C)=O)[C@@H](O)[C@@H](O)C2)(COCCC(=O)NCCCNC(=O)CCC(=O)N2C[C@H](NC(C)=O)[C@@H](O)[C@@H](O)C2)NC(=O)CCCCCCCCCCCOCc2ccccc2)C[C@H](O)[C@@H]1O` [Compound 269, N,N′,N′-((3S,3′S,3″S,4R,4′R,4″R,5S,5′S,5″S)-(15-(12-(benzyloxy)dodecanamido)-4,10,20,26-tetraoxo-15-((3-oxo-3-((3-(4-oxobutanamido)propyl)amino)pro-poxy)methyl)-13,17-dioxa-5,9,21,25-tetraazanonacosanedioyl)tris(4,5-dihydroxypiperidine-1,3-diyl))triacetamide] here?
The IC50 was 0.598 µM.
